Reference: patent US10576085B2, “Substituted aminopurine compounds, compositions thereof, and methods of treatment therewith” (Signal Pharmaceuticals, LLC, priority 2016, dated 2020)

Tested on: cancer cell lines of Table 2
Assay: Multiplexed cytotoxicity assay: apoptosis (activated caspase-3; Cal_X2, Cal_X5, Max_Fold_Change)
Format: cell-based
Experimental: Cells are grown in RPMI1640, 10% FBS, 2 mM L-alanyl-L-Glutamine, 1 mM Na pyruvate or a special medium in a humidified atmosphere of 5% CO2 at 37° C. Cells are seeded into 384-well plates and incubated in a humidified atmosphere of 5% CO2 at 37° C. Compounds are added 24 h post cell seeding. At the same time, a time zero untreated cell plate is generated. After a 72 hour incubation period, cells are fixed and stained with fluorescently labeled antibodies and nuclear dye to allow visualization of nuclei, apoptotic cells and mitotic cells. Apoptotic cells are detected using an anti-active caspase-3 antibody. Mitotic cells are detected using an anti phospho-histone-3 antibody. Compounds are serially diluted 3.16-fold and assayed over 10 concentrations in a final assay concentration of 0.1% DMSO from the highest test concentration of 10 μM. Automated fluorescence microscopy was carried out using a Molecular Devices ImageXpress Micro XL high-content imager, and images are collected with a 4× objective.
The activated caspase-3 marker labels cells from early to late stage apoptosis. Concentrations of test compound that cause a 5-fold induction in the caspase-3 signal (Cal_X5) indicate significant apoptosis induction. The maximal induction of caspase 3 by compound in comparison with DMSO control is reported as Max_Fold_Change.
In Another Experiment, Cells were Grown in RPMI1640, 10% FBS, 2 mM L-alanyl-L-Glutamine, 1 mM Na pyruvate or a special medium in a humidified atmosphere of 5% CO2 at 37° C. Cells were seeded into 384-well plates and incubated in a humidified atmosphere of 5% CO2 at 37° C. Compounds were added 24 h post cell seeding. At the same time, a time zero untreated cell plate was generated. After a 72 hour incubation period, cells were fixed and stained with fluorescently labeled antibodies and nuclear dye to allow visualization of nuclei, apoptotic cells and mitotic cells. Apoptotic cells were detected using an anti-active caspase-3 antibody. Mitotic cells were detected using an anti phospho-histone-3 antibody. Compounds were serially diluted 3.16-fold and assayed over 10 concentrations in a final assay concentration of 0.1% DMSO from the highest test concentration of 10 μM. Automated fluorescence microscopy was carried out using a Molecular Devices ImageXpress Micro XL high-content imager, and images were collected with a 4× objective.
The activated caspase-3 marker labels cells from early to late stage apoptosis. Concentrations of test compound that cause a 2-fold (Cal-X2) or 5-fold induction in the caspase-3 signal (Cal_X5) indicated significant apoptosis induction. The maximal induction of caspase 3 by compound in comparison with DMSO control was reported as Max_Fold_Change.

`C[C@]1(C(N)=O)CC[C@@H](n2c(Nc3c(Cl)cc(Cl)cc3Cl)nc3cnc(N[C@@H]4CCOC[C@H]4F)nc32)CC1` [Compound 1, cis-4-[2-{[(3S,4R)-3-fluorooxan-4-yl]amino}-8-(2,4,6-trichloroanilino)-9H-purin-9-yl]-1-methyl cyclohexane-1-carboxamide] showed a CalX2 (639V, Bladder) of 0.0841 µM, a CalX5 (639V, Bladder) of 0.465 µM and a Max fold change (639V, Bladder) of 6.33. It also gave a CalX2 (647V, Bladder) of 2.7413 µM, a CalX5 (647V, Bladder) of 4.45 µM and a Max fold change (647V, Bladder) of 19.29. The CalX2 (769P, Kidney) was 0.2023 µM, the CalX5 (769P, Kidney) was 5.11 µM and the Max fold change (769P, Kidney) was 5.67. For the same compound, the CalX2 (786O, Kidney) was 10 µM, the CalX5 (786O, Kidney) was 10 µM and the Max fold change (786O, Kidney) was 0.83. For the same compound, the CalX2 (A7, Skin, Melanoma) was 5.0814 µM, the CalX5 (A7, Skin, Melanoma) was 9.4 µM and the Max fold change (A7, Skin, Melanoma) was 5.51. For the same compound, the CalX2 (A101D, Skin, Melanoma) was 0.4207 µM, the CalX5 (A101D, Skin, Melanoma) was 3.71 µM and the Max fold change (A101D, Skin, Melanoma) was 7.93. The CalX2 (A375, Skin, Melanoma) was 0.0673 µM, the CalX5 (A375, Skin, Melanoma) was 0.0827 µM and the Max fold change (A375, Skin, Melanoma) was 103.79. It also gave a CalX2 (A498, Kidney) of 0.5562 µM, a CalX5 (A498, Kidney) of 10 µM and a Max fold change (A498, Kidney) of 4.72. The CalX2 (A704, Kidney) was 10 µM, the CalX5 (A704, Kidney) was 10 µM and the Max fold change (A704, Kidney) was 0.96. The CalX2 (A2058, Skin, Melanoma) was 0.065 µM, the CalX5 (A2058, Skin, Melanoma) was 0.204 µM and the Max fold change (A2058, Skin, Melanoma) was 11.68. The CalX2 (ACHN, Kidney) was 0.78 µM, the CalX5 (ACHN, Kidney) was 10 µM and the Max fold change (ACHN, Kidney) was 2.97. It also gave a CalX2 (AU565, Breast) of 3.8749 µM, a CalX5 (AU565, Breast) of 7.14 µM and a Max fold change (AU565, Breast) of 14.18. It also gave a CalX2 (BC1, Lymphoma) of 5.1005 µM, a CalX5 (BC1, Lymphoma) of 6.54 µM and a Max fold change (BC1, Lymphoma) of 8.72. For the same compound, the CalX2 (BCP1, Lymphoma) was 4.8663 µM, the CalX5 (BCP1, Lymphoma) was 7.36 µM and the Max fold change (BCP1, Lymphoma) was 6.56. It also gave a CalX2 (BFTC905, Bladder) of 0.0179 µM, a CalX5 (BFTC905, Bladder) of 0.0414 µM and a Max fold change (BFTC905, Bladder) of 45.3. For the same compound, the CalX2 (BT20, Breast) was 10 µM, the CalX5 (BT20, Breast) was 10 µM and the Max fold change (BT20, Breast) was 1.81. It also gave a CalX2 (BT474, Breast) of 10 µM, a CalX5 (BT474, Breast) of 10 µM and a Max fold change (BT474, Breast) of 0.94. The CalX2 (BV173, Leukemia) was 0.4959 µM, the CalX5 (BV173, Leukemia) was 10 µM and the Max fold change (BV173, Leukemia) was 2.91. For the same compound, the CalX2 (C32, Skin, Melanoma) was 0.0451 µM, the CalX5 (C32, Skin, Melanoma) was 0.0778 µM and the Max fold change (C32, Skin, Melanoma) was 110.9. It also gave a CalX2 (C32TG, Skin, Melanoma) of 0.0608 µM, a CalX5 (C32TG, Skin, Melanoma) of 0.117 µM and a Max fold change (C32TG, Skin, Melanoma) of 42.82. For the same compound, the CalX2 (CA46, Lymphoma) was 3.2395 µM, the CalX5 (CA46, Lymphoma) was 8.08 µM and the Max fold change (CA46, Lymphoma) was 9.46. It also gave a CalX2 (CAKI1, Kidney) of 0.2015 µM, a CalX5 (CAKI1, Kidney) of 10 µM and a Max fold change (CAKI1, Kidney) of 4.12. For the same compound, the CalX2 (CAKI2, Kidney) was 0.1631 µM, the CalX5 (CAKI2, Kidney) was 0.449 µM and the Max fold change (CAKI2, Kidney) was 6.26. For the same compound, the CalX2 (CCRFCEM, Leukemia) was 3.4279 µM, the CalX5 (CCRFCEM, Leukemia) was 6.95 µM and the Max fold change (CCRFCEM, Leukemia) was 12.74. It also gave a CalX2 (CEMC1, Leukemia) of 4.1828 µM, a CalX5 (CEMC1, Leukemia) of 5.22 µM and a Max fold change (CEMC1, Leukemia) of 11.27. For the same compound, the CalX2 (CHL1, Skin, Melanoma) was 1.2376 µM, the CalX5 (CHL1, Skin, Melanoma) was 10 µM and the Max fold change (CHL1, Skin, Melanoma) was 3.46. For the same compound, the CalX2 (CMLT1, Leukemia) was 0.0948 µM, the CalX5 (CMLT1, Leukemia) was 10 µM and the Max fold change (CMLT1, Leukemia) was 4.85. It also gave a CalX2 (COLO829, Skin, Melanoma) of 0.0421 µM, a CalX5 (COLO829, Skin, Melanoma) of 0.125 µM and a Max fold change (COLO829, Skin, Melanoma) of 24.28. It also gave a CalX2 (CROAP2, Lymphoma) of 2.9603 µM, a CalX5 (CROAP2, Lymphoma) of 4.2 µM and a Max fold change (CROAP2, Lymphoma) of 50.79. It also gave a CalX2 (D283MED, CNS, Medulloblastoma) of 8.3456 µM, a CalX5 (D283MED, CNS, Medulloblastoma) of 10 µM and a Max fold change (D283MED, CNS, Medulloblastoma) of 2.23. It also gave a CalX2 (D341MED, CNS, Medulloblastoma) of 7.7855 µM, a CalX5 (D341MED, CNS, Medulloblastoma) of 10 µM and a Max fold change (D341MED, CNS, Medulloblastoma) of 2.14. The CalX2 (DAOY, CNS, Medulloblastoma) was 3.2773 µM, the CalX5 (DAOY, CNS, Medulloblastoma) was 5.22 µM and the Max fold change (DAOY, CNS, Medulloblastoma) was 16.68. It also gave a CalX2 (DAUDI, Lymphoma) of 3.9392 µM, a CalX5 (DAUDI, Lymphoma) of 5.33 µM and a Max fold change (DAUDI, Lymphoma) of 10.08. It also gave a CalX2 (DB, Lymphoma) of 6.1153 µM, a CalX5 (DB, Lymphoma) of 6.5 µM and a Max fold change (DB, Lymphoma) of 7.11. The CalX2 (DOHH2, Lymphoma) was 2.4833 µM, the CalX5 (DOHH2, Lymphoma) was 3.99 µM and the Max fold change (DOHH2, Lymphoma) was 20.41. For the same compound, the CalX2 (EB2, Lymphoma) was 5.7381 µM, the CalX5 (EB2, Lymphoma) was 10 µM and the Max fold change (EB2, Lymphoma) was 4.16. The CalX2 (EB3, Lymphoma) was 6.1469 µM, the CalX5 (EB3, Lymphoma) was 7.66 µM and the Max fold change (EB3, Lymphoma) was 5.5. The CalX2 (EM2, Leukemia) was 10 µM, the CalX5 (EM2, Leukemia) was 10 µM and the Max fold change (EM2, Leukemia) was 1.55. For the same compound, the CalX2 (G361, Skin, Melanoma) was 0.0428 µM, the CalX5 (G361, Skin, Melanoma) was 0.12 µM and the Max fold change (G361, Skin, Melanoma) was 24.48. It also gave a CalX2 (G401, Kidney) of 0.0717 µM, a CalX5 (G401, Kidney) of 0.179 µM and a Max fold change (G401, Kidney) of 30.87. The CalX2 (G402, Kidney) was 0.0162 µM, the CalX5 (G402, Kidney) was 0.637 µM and the Max fold change (G402, Kidney) was 7.34. The CalX2 (GA10, Lymphoma) was 0.6477 µM, the CalX5 (GA10, Lymphoma) was 1.94 µM and the Max fold change (GA10, Lymphoma) was 6.49. For the same compound, the CalX2 (H9, Lymphoma) was 0.0222 µM, the CalX5 (H9, Lymphoma) was 0.4 µM and the Max fold change (H9, Lymphoma) was 7.33. The CalX2 (HEL9217, Leukemia) was 3.2991 µM, the CalX5 (HEL9217, Leukemia) was 6.57 µM and the Max fold change (HEL9217, Leukemia) was 6.23. For the same compound, the CalX2 (HEPG2, Liver) was 0.0041 µM, the CalX5 (HEPG2, Liver) was 0.0108 µM and the Max fold change (HEPG2, Liver) was 62.47. For the same compound, the CalX2 (HLE, Liver) was 0.8174 µM, the CalX5 (HLE, Liver) was 10 µM and the Max fold change (HLE, Liver) was 2.5. For the same compound, the CalX2 (HLF, Liver) was 10 µM, the CalX5 (HLF, Liver) was 10 µM and the Max fold change (HLF, Liver) was 1.95. It also gave a CalX2 (HMCB, Skin, Melanoma) of 10 µM, a CalX5 (HMCB, Skin, Melanoma) of 10 µM and a Max fold change (HMCB, Skin, Melanoma) of 1.8. For the same compound, the CalX2 (HS294T, Skin, Melanoma) was 0.154 µM, the CalX5 (HS294T, Skin, Melanoma) was 2.15 µM and the Max fold change (HS294T, Skin, Melanoma) was 5.74. For the same compound, the CalX2 (HS445, Lymphoma) was 4.9128 µM, the CalX5 (HS445, Lymphoma) was 7.7 µM and the Max fold change (HS445, Lymphoma) was 5.65.
